From patent publication US7910102B2 (priority 2006, dated 2011)
Where “and” joins values, the source holds several entries; their conditions need not be identical. Identical values can stand only once. Entries after “also recorded” stand apart in the source; their conditions may differ. Bridge positions count the residues as written; N and C are the ends. Square brackets hold non-standard residues; d marks the D form. Ends that are not written are not given here. Peptide text beside a SMILES is read from it. 1Nal = N[C@@H](Cc1cccc2ccccc12)C(=O)O

Columns and labels:
[1] = tested on: IFN-g production in human whole blood; format: cell-based
[2] = tested on: IL-2 production in human whole blood; format: cell-based
human Kv1.3 [3] = molecular target: T1, human Kv1.3 (Homo sapiens, UniProt P22001); format: cell-based; parameters: expressed in transfected cells
human Kv1.3 [4] = molecular target: T1, human Kv1.3; format: cell-based; conditions: for IC50: read-out: IC50 Sustained
IL-2R on CD4+ T cells = format: cell-based, human
CD40L on CD4+ T cells = format: cell-based, human

T1 sequence (P22001 whole entry): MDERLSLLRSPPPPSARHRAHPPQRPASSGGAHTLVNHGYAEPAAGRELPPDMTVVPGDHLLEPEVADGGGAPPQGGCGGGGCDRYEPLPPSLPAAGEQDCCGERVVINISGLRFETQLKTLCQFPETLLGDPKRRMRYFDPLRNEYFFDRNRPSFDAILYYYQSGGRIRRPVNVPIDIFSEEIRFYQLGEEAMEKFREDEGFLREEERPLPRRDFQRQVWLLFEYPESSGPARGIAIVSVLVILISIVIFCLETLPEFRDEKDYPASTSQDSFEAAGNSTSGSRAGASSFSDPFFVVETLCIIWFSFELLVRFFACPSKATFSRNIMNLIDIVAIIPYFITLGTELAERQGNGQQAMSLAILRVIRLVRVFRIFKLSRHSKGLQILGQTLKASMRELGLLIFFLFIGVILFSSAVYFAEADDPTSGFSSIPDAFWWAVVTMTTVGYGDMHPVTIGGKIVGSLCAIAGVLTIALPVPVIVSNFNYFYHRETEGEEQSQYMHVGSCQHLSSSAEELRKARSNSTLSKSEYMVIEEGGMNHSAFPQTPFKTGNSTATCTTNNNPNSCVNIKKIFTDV

Molecule: CC[C@H](C)[C@@H]1NC(=O)[C@H](CCCCN)NC(=O)[C@@H](NC(=O)[C@H](CCCCN)NC(=O)[C@@H](NC(=O)[C@H](CC(N)=O)NC(=O)[C@@H](NC(=O)[C@@H](NC(=O)[C@@H](NC(=O)CN)C(C)C)[C@@H](C)CC)[C@@H](C)CC)C(C)C)CSSC[C@@H]2NC(=O)[C@H](CCCCN)NC(=O)CNC(=O)[C@H](Cc3ccccc3)NC(=O)[C@H](CCCNC(=N)N)NC(=O)[C@H](CCSC)NC(=O)CNC(=O)[C@H](C)NC(=O)[C@H](Cc3cccc4ccccc34)NC(=O)[C@H](CCCCN)NC(=O)[C@@H]3CSSC[C@@H](C(=O)N[C@H](C(=O)N4CCC[C@H]4C(=O)N[C@@H](CCCCN)C(=O)O)[C@@H](C)O)NC(=O)[C@H](Cc4c[nH]cn4)NC(=O)[C@H](CSSC[C@H](NC(=O)[C@H](CCC(N)=O)NC(=O)[C@H](CCCNC(=N)N)NC(=O)[C@H](CO)NC1=O)C(=O)N[C@@H](CC(C)C)C(=O)N[C@@H](CCC(=O)O)C(=O)N1CCC[C@H]1C(=O)N3)NC(=O)[C@H](CCCCN)NC(=O)CNC(=O)[C@H](CC(N)=O)NC(=O)[C@H](CCSC)NC2=O [K20Nal] (H-GVIINVKCKISRQCLEPCK[1Nal]AGMRFGKCMNGKCHCTPK-OH; disulfide 8-28, 14-33, 18-35)
- IC50 ([1]; read-out: Analogue Activity (IC50, pM) WB/IFNg): 12 pM

Molecule: CC[C@H](C)[C@@H]1NC(=O)[C@H](CCCCN)NC(=O)[C@@H](NC(=O)[C@H](CCCCN)NC(=O)[C@@H](NC(=O)[C@H](CC(N)=O)NC(=O)[C@@H](NC(=O)[C@@H](NC(=O)[C@@H](NC(=O)CN)C(C)C)[C@@H](C)CC)[C@@H](C)CC)C(C)C)CSSC[C@@H]2NC(=O)[C@H](CCCCN)NC(=O)CNC(=O)[C@H](Cc3ccccc3)NC(=O)[C@H](CCCNC(=N)N)NC(=O)[C@H](CCSC)NC(=O)CNC(=O)[C@H](C)NC(=O)[C@H](CCCCN)NC(=O)[C@H](CCCCN)NC(=O)[C@@H]3CSSC[C@@H](C(=O)N[C@H](C(=O)N4CCC[C@H]4C(=O)N[C@@H](CCCCN)C(=O)O)[C@@H](C)O)NC(=O)[C@H](Cc4c[nH]cn4)NC(=O)[C@H](CSSC[C@H](NC(=O)[C@H](CCC(N)=O)NC(=O)[C@H](CCCNC(=N)N)NC(=O)[C@H](CO)NC1=O)C(=O)N[C@@H](CC(C)C)C(=O)N[C@@H](CCC(=O)O)C(=O)N1CCC[C@H]1C(=O)N3)NC(=O)[C@H](CCCCN)NC(=O)CNC(=O)[C@H](CC(N)=O)NC(=O)[C@H](C)NC2=O [OSK1[Ala-29]] (H-GVIINVKCKISRQCLEPCKKAGMRFGKCANGKCHCTPK-OH; disulfide 8-28, 14-33, 18-35)
- potency in blocking the cytokine response relative to cyclosporin A (in words) [2]: several orders of magnitude more potent
- inhibition of the Kv1.3 current (in words) (human Kv1.3 [3]): potent inhibition of the Kv1.3 current

Molecule: Fc-L10-OSK1[K7S,E16K,K20D]: OSK1-peptibody with triple amino acid substitutions at positions 7, 16 and 20
- fold less potent than the synthetic OSK1 toxin peptide (human Kv1.3 [4]): approximately 21 fold

Molecule: Fc-L10-OSK1[K7S]
- fold less potent than the synthetic OSK1 toxin peptide (human Kv1.3 [4]): approximately 10 fold

Molecule: Fc-L10-ShK[2-35]: human IgG1 Fc fused via L10 linker to ShK[2-35]; peptibody
- block of thapsigargin-induced upregulation of the IL-2R on T cells (in words) (IL-2R on CD4+ T cells): blocked
- block of thapsigargin-induced upregulation of CD40L on T cells (in words) (CD40L on CD4+ T cells): blocked
- block of thapsigargin-induced IL-2 production in human whole blood (in words) [2]: suppressed; also recorded: potently blocked IL-2 secretion
- block of thapsigargin-induced IFN-g production in human whole blood (in words) [1]: suppressed; also recorded: blocked

Molecule: PEG-Fc-L10-OSK1
- IC50 (human Kv1.3 [4]): 0.256 nM and 0.332 nM

Molecule: PEG-Fc-L10-SHK(2-35)
- IC50 (human Kv1.3 [4]): 0.175 nM and 0.158 nM

Molecule: SEQ ID No: 4989: OSK1 analog without beta strand 1 (labeled des 1-7), Table 42 (CKISRQCLKPCKDAGMRFGKCMNGKCHC-NH2; ends and bridges not checked)
- blockade of the whole blood cytokine response / inflammation (in words) [2]: still retain activity in blocking inflammation

Molecule: dendrotoxin-K [DTX-K, reference compound]
- block of thapsigargin-induced upregulation of the IL-2R on T cells (in words) (IL-2R on CD4+ T cells): no significant activity
- block of thapsigargin-induced upregulation of CD40L on T cells (in words) (CD40L on CD4+ T cells): no significant activity

Molecule: iberiotoxin (QFTDVDCSVSKECWSVCKDLFGVDRGKCMGKKCRCYQ; Definition of Artificial Sequence: Synthetic peptide) [IbTx, reference compound]
- block of thapsigargin-induced upregulation of the IL-2R on T cells (in words) (IL-2R on CD4+ T cells): no significant activity
- block of thapsigargin-induced upregulation of CD40L on T cells (in words) (CD40L on CD4+ T cells): no significant activity
- block of thapsigargin-induced IL-2 production in human whole blood (in words) [2]: no significant activity
- block of thapsigargin-induced IFN-g production in human whole blood (in words) [1]: no significant activity

B1: FcLoop-L4-OsK1-L4: FcLoop OSK1 toxin conjugate as named in b1013 only (protein)
chain: MDKTHTCPPCPAPELLGGPSVFLFPPKPKDTLMISRTPEVTCVVVDVSHEDPEVKFNWYVDGVEVHNAKTKPREEQYNSTYRVVSVLTVLHQDWLNGKEYKCKVSNKALPAPIEKTISKAKGQPREPQVYTLPPSRDELGGGGGVIINVKCKISRQCLEPCKKAGMRFGKCMNGKCHCTPKGGTKNQVSLTCLVKGFYPSDIAVEWESNGQPENNYKTTPPVLDSDGSFFLYSKLTVDKSRWQQGNVFSCSVMHEALHNHYTQKSLSLSPGK
- blockade of the whole blood cytokine response / inflammation (in words) [2]: IC50 values in the pM range

B2: FcLoop-L2-OsK1-L2: OsK1 inserted into the human IgG1 Fc-loop domain with Gly linkers (protein)
chain: MDKTHTCPPCPAPELLGGPSVFLFPPKPKDTLMISRTPEVTCVVVDVSHEDPEVKFNWYVDGVEVHNAKTKPREEQYNSTYRVVSVLTVLHQDWLNGKEYKCKVSNKALPAPIEKTISKAKGQPREPQVYTLPPSRDELGGGVIINVKCKISRQCLEPCKKAGMRFGKCMNGKCHCTPKGGTKNQVSLTCLVKGFYPSDIAVEWESNGQPENNYKTTPPVLDSDGSFFLYSKLTVDKSRWQQGNVFSCSVMHEALHNHYTQKSLSLSPGK
modifications: Definition of Artificial Sequence: Synthetic protein
- blockade of the whole blood cytokine response / inflammation (in words) [2]: IC50 values in the pM range

B3: PEGylated CH2-OSK1: CH2-OSK1 fusion protein mono-PEGylated with 20 kD methoxy-PEG-aldehyde (conjugate)
chain: MGGHHHHHHGGGPSVFLFPPKPKDTLMISRTPEVTCVVVDVSHEDPEVKFNWYVDGVEVHNAKTKPREEQYNSTYRVVSVLTVLHQDWLNGKEYKCKVSNKALPAPIEKTISGGGGSGGGGSGVIINVKCKISRQCLEPCKKAGMRFGKCMNGKCHCTPK
- blockade of the whole blood cytokine response / inflammation (in words) [2]: active in blocking inflammation; also recorded: modest blockade of the whole blood cytokine response

B4: FcLoop-L2-ShK-L2: ShK inserted into the human IgG1 Fc-loop domain with Gly linkers (protein)
chain: MDKTHTCPPCPAPELLGGPSVFLFPPKPKDTLMISRTPEVTCVVVDVSHEDPEVKFNWYVDGVEVHNAKTKPREEQYNSTYRVVSVLTVLHQDWLNGKEYKCKVSNKALPAPIEKTISKAKGQPREPQVYTLPPSRDELGGRSCIDTIPKSRCTAFQCKHSMKYRLSFCRKTCGTCGGTKNQVSLTCLVKGFYPSDIAVEWESNGQPENNYKTTPPVLDSDGSFFLYSKLTVDKSRWQQGNVFSCSVMHEALHNHYTQKSLSLSPGK
modifications: Definition of Artificial Sequence: Synthetic protein
- blockade of the whole blood cytokine response / inflammation (in words) [2]: IC50 values in the pM range
